{
  "source": "patent US9635854B2",
  "about": "“Controlling red rice with mesotrione” (FMC Corporation, priority 2014, dated 2017)",
  "key": {"[1]": {"tested_on": "red rice (Oryza sativa)", "assay": "Pre-emergent evaluation on flooded rice, red rice control", "type": "in vivo", "conditions": "200 g ai/ha; for Percent red rice control: PRE, direct-seeded flooded rice", "description": "(§1) Rice (Oryza sativa) crop varieties (‘Cybonee’, ‘Jupiter’, and ‘Taggart’) and red rice (Oryza sativa) were planted in 6 inch plastic pots containing sterile top soil. Eight to ten seeds of each species were seeded at 12 o'clock, 3 o'clock, 6 o'clock or 9 o'clock around the pot. The pots were watered after planting. […] The test solutions were applied using a compressed air track spray chamber at 30 gallons per acre using a Teejet 8001E nozzle at 40 PSI, three replicates per test rate. After treatment, the pots were watered lightly and transferred to trays in a greenhouse. After the plants were two inches in height the trays were flooded with water and maintained as such for 14 days. The trays were emptied of water and the pots were maintained by regular watering for 4 more days. At 14, 21 and 28 days after treatment (DAT) the plants were evaluated versus untreated control pots containing the same rice and weeds using a scale of 0% (no control) to 100% (complete plant death)."}, "[2]": {"tested_on": "Rice (Oryza sativa) 'Jupiter'", "conditions": "for Percent rice injury Jupiter: Oryza sativa (rice), in vivo", "from_the_text": "(§2) Rice (Oryza sativa) was planted in 6″ by 10″ fiber flats filled with sterile top soil. Five rows were made in each flat and the three rice varieties (′Cybonee, ‘Jupiter’, and ‘Taggart’) were planted in the center 3 rows and a row of red rice (Oryza sativa) was planted on either end of the flat. The flats were watered after planting. After application flats were placed in the greenhouse and lightly watered. […] The flats were moved to a greenhouse and watered and fertilized routinely. Studies were conducted using randomized complete block design with four replications. In both studies, visual percent red rice control and rice injury were recorded at 14, 21, and 28 days after treatment (DAT), using a scale of 0 (no control/injury) to 100 (complete plant death)."}, "[3]": {"tested_on": "Rice (Oryza sativa) 'Taggart'", "conditions": "for Percent rice injury Taggart: Oryza sativa (rice), in vivo", "from_the_text": "as §2"}, "[4]": {"tested_on": "Rice (Oryza sativa) 'Cybonee'", "conditions": "for Percent rice injury Cybonet: Cybonee, Oryza sativa (rice), in vivo", "from_the_text": "as §2"}, "[5]": {"tested_on": "red rice (Oryza sativa)", "assay": "Pre-emergent evaluation on dryland rice, red rice control", "type": "in vivo", "conditions": "200 g ai/ha; for Percent red rice control: PRE, direct-seeded dryland rice", "from_the_text": "as §2"}, "[6]": {"tested_on": "Rice (Oryza sativa) 'Jupiter'", "conditions": "for Percent rice injury Jupiter: in vivo", "description": "as §1"}, "[7]": {"tested_on": "Rice (Oryza sativa) 'Taggart'", "conditions": "for Percent rice injury Taggart: in vivo", "description": "as §1"}, "[8]": {"tested_on": "Rice (Oryza sativa) 'Cybonee'", "conditions": "for Percent rice injury Cybonet: in vivo", "description": "as §1"}},
  "note": "Where two headings read alike, the source gives them in different places.",
  "data": [
    {"smiles": "CC1(C)CON(Cc2ccccc2Cl)C1=O", "note": "[Clomazone, clomazone]", "values": [
      {"measurement": "red rice control", "setting": "[1]; PRE flooded rice", "result": "failed to control"},
      {"measurement": "Percent red rice control", "setting": "[1]; 14 DAT", "result": 56, "unit": "C %"},
      {"measurement": "Percent red rice control", "setting": "[1]; 21 DAT", "result": 59, "unit": "B %"},
      {"measurement": "Percent red rice control", "setting": "[1]; 28 DAT", "result": 52, "unit": "B %"},
      {"measurement": "Percent rice injury Jupiter", "setting": "[2]; 14 days after treatment", "result": 31, "unit": "A %"},
      {"measurement": "Percent rice injury Jupiter", "setting": "[2]; 21 days after treatment", "result": 41, "unit": "A %"},
      {"measurement": "Percent rice injury Jupiter", "setting": "[2]; 28 days after treatment", "result": 44, "unit": "A %"},
      {"measurement": "rice injury, 'Jupiter'", "setting": "[2]; PRE dryland rice, 200 g ai/ha", "result": "injured"},
      {"measurement": "rice injury, 'Taggart'", "setting": "[3]; PRE dryland rice, 200 g ai/ha", "result": "injured"},
      {"measurement": "Percent rice injury Taggart", "setting": "[3]; 14 days after treatment", "result": 40, "unit": "A %"},
      {"measurement": "Percent rice injury Taggart", "setting": "[3]; 21 days after treatment", "result": 60, "unit": "A %"},
      {"measurement": "Percent rice injury Taggart", "setting": "[3]; 28 days after treatment", "result": 66, "unit": "A %"},
      {"measurement": "Percent rice injury Cybonet", "setting": "[4]; 14 days after treatment", "result": 35, "unit": "A %"},
      {"measurement": "Percent rice injury Cybonet", "setting": "[4]; 21 days after treatment", "result": 39, "unit": "A %"},
      {"measurement": "Percent rice injury Cybonet", "setting": "[4]; 28 days after treatment", "result": 43, "unit": "A %"},
      {"measurement": "rice injury, 'Cybonee'", "setting": "[4]; PRE dryland rice, 200 g ai/ha", "result": "injured"},
      {"measurement": "red rice control", "setting": "[5]; PRE dryland rice", "result": "failed to control"},
      {"measurement": "Percent red rice control", "setting": "[5]; 14 DAT", "result": 38, "unit": "C %"},
      {"measurement": "Percent red rice control", "setting": "[5]; 21 DAT", "result": 50, "unit": "D %"},
      {"measurement": "Percent red rice control", "setting": "[5]; 28 DAT", "result": 46, "unit": "C %"},
      {"measurement": "Percent rice injury Jupiter", "setting": "[6]; Jupiter, Oryza sativa (rice), 21 days after treatment", "result": 86, "unit": "A %"},
      {"measurement": "Percent rice injury Jupiter", "setting": "[6]; Jupiter, Oryza sativa (rice), 28 days after treatment", "result": 79, "unit": "A %"},
      {"measurement": "rice injury, 'Jupiter'", "setting": "[6]; PRE flooded rice, 200 g ai/ha", "result": "injured"},
      {"measurement": "Percent rice injury Jupiter", "setting": "[6]", "result": 60, "unit": "A %"},
      {"measurement": "rice injury, 'Taggart'", "setting": "[7]; PRE flooded rice, 200 g ai/ha", "result": "injured"},
      {"measurement": "Percent rice injury Taggart", "setting": "[7]; Taggart, Oryza sativa (rice), 21 days after treatment", "result": 76, "unit": "A %"},
      {"measurement": "Percent rice injury Taggart", "setting": "[7]; Taggart, Oryza sativa (rice), 28 days after treatment", "result": 71, "unit": "A %"},
      {"measurement": "Percent rice injury Taggart", "setting": "[7]", "result": 58, "unit": "A %"},
      {"measurement": "Percent rice injury Cybonet", "setting": "[8]; Cybonee, Oryza sativa (rice), 21 days after treatment", "result": 58, "unit": "A %"},
      {"measurement": "Percent rice injury Cybonet", "setting": "[8]; Cybonee, Oryza sativa (rice), 28 days after treatment", "result": 49, "unit": "AB %"},
      {"measurement": "rice injury, 'Cybonee'", "setting": "[8]; PRE flooded rice, 200 g ai/ha", "result": "injured"},
      {"measurement": "Percent rice injury Cybonet", "setting": "[8]", "result": 41, "unit": "A %"}
    ]}
  ]
}
